Measured values reported in patent publication US20260132384A1, “METHOD FOR REPROGRAMMING HUMAN SOMATIC CELLS INTO INDUCED PLURIPOTENT STEM CELLS” (EXONEUGLIA BIOTECHNOLOGY (SUZHOU) CO., LTD., priority 2023, published 2026).

Tested on: peripheral blood mononuclear cells (PBMCs)
Assay: Reprogramming of human peripheral blood cells into induced pluripotent stem cells; clones counted by alkaline phosphatase staining
Type: cell-based
Conditions: day 14, clones per 5.0×10^5 reprogrammed PBMCs, OCT4, SOX2, LIN28 episomal plasmids, inducers added to induction medium
Description: The inducing factors were introduced via electroporation of episomal plasmids in Treatment Groups 1 to 6. The groups differed only in the chemical inducer small molecules added to the pluripotent stem cell induction medium. The specific steps were as follows:
(2) Expansion of Peripheral Blood Cells: Freshly isolated peripheral blood cells (peripheral blood cells obtained with ethical approval were purchased from Shanghai HYCELLs Company) were seeded into a 6-well plate at a density of 5×10^6 cells/mL and cultured statically for 7 days at 37° C. in an incubator. The peripheral blood cell expansion medium used was StemPro™-34 medium supplemented with SCF 100 ng/ml, FLT-3 100 ng/ml, IL-3 20 ng/ml, IL-6 20 ng/ml, and TPO 100 ng/mL.
(3) Electroporation: Prior to electroporation, 500 μL of diluted basement membrane matrix (Matrigel) was added to a […] and placed in a CO2 incubator for coating. The expanded cells were collected and washed. After counting, the peripheral blood mononuclear cells (PBMCs) were placed in a 1.5 mL centrifuge tube at a density of 2×10^6 cells/mL. The tube was loaded into a centrifuge and centrifuged at 200 g for 5 minutes. After centrifugation, the supernatant was aspirated with a pipette and set aside for later use.
According to the Thermo Neon electroporation instrument protocols, buffer was added. The cell pellet was mixed with 5 μg of pCEP4-OCT4-IRES-SOX2 plasmid and 2 μg of pCEP4-Lin28 plasmid, and the mixture was loaded into the electroporation instrument for electroporation. Peripheral blood expansion medium was immediately added thereafter, and the cells were seeded in the coated 6-well plate at a density of 5×10^5 cells/mL and cultured statically for 48 h at 37° C. in a CO2 incubator.
(4) Induction: At 48 h post-electroporation, 1 mL of pluripotent stem cell induction medium was directly added to the original wells, and the culture was continued statically for 48 h at 37° C. in a CO2 incubator; On day 4 post-electroporation, half of the old medium in the original wells was aspirated and discarded, 1 mL of fresh pluripotent stem cell induction medium was then added, and the culture was continued statically for 48 h at 37° C. in a CO2 incubator; On day 6 post-electroporation, all the old medium in the original wells was aspirated and discarded, 1 mL of fresh pluripotent stem cell induction medium was added, and the culture was continued statically for 48 h at 37° C. in a CO2 incubator; On day 8 post-electroporation, all the old medium in the original wells was aspirated and discarded, 1 mL of fresh pluripotent stem cell induction medium was added, and the culture was continued statically for 48 h at 37° C. in a CO2 incubator; On day 10 post-electroporation, all the old medium in the original wells was aspirated and discarded, 1 mL of fresh mTeSR1 medium was added, and the culture was continued statically at 37° C. in a CO2 incubator; The mTeSR1 medium was changed daily until the induced pluripotent stem cells were fully mature, approximately on day 14 or 15 post-electroporation. Clones were then picked for expansion.
The pluripotent stem cell induction medium for Treatment Group 1 was mTeSR1 medium supplemented with 3 μM chir99021, 100 ng/ml FGF2, 250 μM NaB, 2 μM SB203580, 1 μM peficitinib, 1 μM FPFT-2216, 0.1 μM VTP50469, 2% (v/v) B27, and 1% (v/v)N-2.
The pluripotent stem cell induction medium for Treatment Group 2 was mTeSR1 medium supplemented with 3 μM chir99021, 100 ng/ml FGF2, 250 μM NaB. 1 μM peficitinib, 2% (v/v) B27, and 1% (v/v)N-2.
The pluripotent stem cell induction medium for Treatment Group 3 was mTeSR1 medium supplemented with 3 μM chir99021, 100 ng/ml FGF2, 250 μM NaB, 2 μM Tofacitinib, 2% (v/v) B27, and 1% (v/v)N-2.
The pluripotent stem cell induction medium for Treatment Group 4 was mTeSR1 medium supplemented with 3 μM chir99021, 100 ng/ml FGF2, 250 μM NaB, 2 μM SB203580, 2% (v/v) B27, and 1% (v/v)N-2. […]

SMILES | Average Number of Pluripotent Stem Cell Clone/Well, Experiment 1 [Clone/Well] | Average Number of Pluripotent Stem Cell Clone/Well, Experiment 2 [Clone/Well] | Average Number of Pluripotent Stem Cell Clone/Well, Experiment 3 [Clone/Well]
NC(=O)c1cnc2[nH]ccc2c1N[C@@H]1[C@@H]2CC3C[C@H]1C[C@@](O)(C3)C2 [Peficitinib] | 43 | 52 | 47
C[S+]([O-])c1ccc(-c2nc(-c3ccncc3)c(-c3ccc(F)cc3)[nH]2)cc1 (stereo not drawn) [SB203580] | 51 | 56 | 48
C[C@@H]1CCN(C(=O)CC#N)C[C@@H]1N(C)c1ncnc2[nH]ccc12 [Tofacitinib] | 20 | 16 | 22
